Test results reported in patent publication US10053428B2, “5-aminotetrahydroquinoline-2-carboxylic acids and their use” (BAYER PHARMA AKTIENGESELLSCHAFT, priority 2012, dated 2018).

Legend:
[1] = biological target: T1, haem-containing recombinant soluble guanylate cyclase (sGC) (Rattus norvegicus, UniProt P20595); test: Stimulation of recombinant soluble guanylate cyclase (sGC) in vitro, haem-containing enzyme; format: biochemical
T1 construct: made in house; host or cells: Sf9 insect cells (baculovirus)
T1 sequence (P20595 1-619): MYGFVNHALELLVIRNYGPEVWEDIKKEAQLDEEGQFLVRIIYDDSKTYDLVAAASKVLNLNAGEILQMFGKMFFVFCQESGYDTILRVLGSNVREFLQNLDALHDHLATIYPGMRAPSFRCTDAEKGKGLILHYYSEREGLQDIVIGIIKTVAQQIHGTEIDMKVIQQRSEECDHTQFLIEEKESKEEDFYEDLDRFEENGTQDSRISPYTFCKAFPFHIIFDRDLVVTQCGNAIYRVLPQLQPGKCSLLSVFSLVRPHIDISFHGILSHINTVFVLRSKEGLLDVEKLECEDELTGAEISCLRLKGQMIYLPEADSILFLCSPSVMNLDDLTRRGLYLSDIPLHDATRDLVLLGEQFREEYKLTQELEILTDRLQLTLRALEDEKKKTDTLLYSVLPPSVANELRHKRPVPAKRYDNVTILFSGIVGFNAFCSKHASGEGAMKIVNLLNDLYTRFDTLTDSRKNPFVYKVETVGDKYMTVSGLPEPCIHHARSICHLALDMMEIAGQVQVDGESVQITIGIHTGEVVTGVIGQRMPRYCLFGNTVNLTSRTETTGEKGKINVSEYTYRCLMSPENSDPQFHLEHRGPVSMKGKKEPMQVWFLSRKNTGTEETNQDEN
T1 sequence (P19686 1-690 partner): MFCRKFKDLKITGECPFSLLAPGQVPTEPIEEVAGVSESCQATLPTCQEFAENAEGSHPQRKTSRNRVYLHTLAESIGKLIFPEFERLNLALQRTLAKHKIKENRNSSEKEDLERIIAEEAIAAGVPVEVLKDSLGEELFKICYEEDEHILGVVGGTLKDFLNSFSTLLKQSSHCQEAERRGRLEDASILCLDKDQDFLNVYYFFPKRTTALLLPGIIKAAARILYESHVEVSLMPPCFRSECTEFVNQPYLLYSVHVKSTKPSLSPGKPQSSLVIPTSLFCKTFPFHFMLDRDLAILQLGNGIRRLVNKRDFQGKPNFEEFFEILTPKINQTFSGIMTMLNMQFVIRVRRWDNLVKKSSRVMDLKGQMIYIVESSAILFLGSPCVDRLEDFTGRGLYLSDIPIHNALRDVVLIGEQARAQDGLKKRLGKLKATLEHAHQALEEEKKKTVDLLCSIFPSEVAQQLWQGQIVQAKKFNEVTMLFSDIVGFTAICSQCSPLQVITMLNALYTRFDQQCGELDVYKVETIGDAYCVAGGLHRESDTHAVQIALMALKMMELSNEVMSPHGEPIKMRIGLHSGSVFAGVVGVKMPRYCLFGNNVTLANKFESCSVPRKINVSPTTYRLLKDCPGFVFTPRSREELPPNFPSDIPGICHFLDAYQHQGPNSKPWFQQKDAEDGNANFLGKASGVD
Protocol: (§1) B-1. Stimulation of Recombinant Soluble Guanylate Cyclase (sGC) In Vitro
(§2) Investigations on the stimulation of recombinant soluble guanylate cyclase (sGC) by the compounds according to the invention with and without sodium nitroprusside, and with and without the haem-dependent sGC inhibitor 1H-1,2,4-oxadiazolo[4,3a]quinoxalin-1-one (ODQ), are carried out by the method described in detail in the following reference: M. Hoenicka, E. M. Becker, H. Apeler, T. Sirichoke, H. Schroeder, R. Gerzer and J.-P. Stasch, “Purified soluble guanylyl cyclase expressed in a baculovirus/Sf9 system: Stimulation by YC-1, nitric oxide, and carbon oxide”, J. Mol. Med 77 (1999), 14-23. The haem-free guanylate cyclase is obtained by adding Tween 20 to the sample buffer (0.5% in the final concentration).
The activation of sGC by a test substance is reported as x-fold stimulation of the basal activity. The result for Example 2 is shown in Table 1A, that for Example 23 in Table 1B and that for Example 39 in Table 1C:
[DEA/NO=2-(N,N-diethylamino)diazenolate 2-oxide; ODQ=1H-1,2,4-oxadiazolo-[4,3a]quinoxalin-1-one].

[2] = biological target: T2, haem-free recombinant soluble guanylate cyclase (sGC) (Rattus norvegicus, UniProt P20595); test: Stimulation of recombinant soluble guanylate cyclase (sGC) in vitro, haem-free enzyme; format: biochemical
T2 construct: made in house; host or cells: Sf9 insect cells (baculovirus)
T2 sequence (P20595 1-619): T1 sequence (P20595 1-619)
T2 sequence (P19686 1-690 partner): T1 sequence (P19686 1-690 partner)
Protocol: as §1, §2
The activation of sGC by a test substance is reported as x-fold stimulation of the basal activity. The result for Example 2 is shown in Table 1A, that for Example 23 in Table 1B and that for Example 39 in Table 1C: […]

[3] = test system: recombinant guanylate cyclase reporter cell line; test: sGC-activating activity in the CHO reporter cell in vitro; format: cell-based; details: read-out: MEC (minimum effective concentration)
Protocol: B-2. Action at a Recombinant Guanylate Cyclase Reporter Cell Line
The cellular action of the compounds according to the invention is determined at a recombinant guanylate cyclase reporter cell line, as described in F. Wunder et al., Anal. Biochem. 32, 104-112 (2005).

saphenous artery rings = test: Vasorelaxant effect in vitro (phenylephrine-contracted saphenous artery rings); set-up: species or system Rabbits; details: rabbit saphenous artery rings; read-out: IC50 (concentration reducing phenylephrine-induced contraction by 50%)
Protocol: B-3. Vasorelaxant Effect In Vitro
Rabbits are anaesthetized and sacrificed by intravenous injection of thiopental sodium (about 50 mg/kg) and exsanguinated. The saphenous artery is removed and divided into rings 3 mm wide. The rings are mounted singly on in each case a pair of triangular hooks open at the end and made of 0.3 mm-thick special wire (Remanium®). Each ring is placed under an initial tension in 5 ml organ baths with Krebs-Henseleit solution which is at 37° C., is gassed with carbogen and has the following composition: NaCl 119 mM; KCl 4.8 mM; CaCl2×2 H2O 1 mM; MgSO4×7H2O 1.4 mM; KH2PO4 1.2 mM; NaHCO3 25 mM; glucose 10 mM; bovine serum albumin 0.001%. The force of contraction is detected with Statham UC2 cells, amplified and digitized via A/D converters (DAS-1802 HC, Keithley Instruments, Munich) and recorded in parallel on chart recorders. Contractions are induced by addition of phenylephrine.
After several (generally 4) control cycles, the substance to be investigated is added in each further run in increasing dosage, and the level of the contraction achieved under the influence of the test substance is compared with the level of the contraction reached in the last preceding run. The concentration necessary to reduce the contraction reached in the preceding control by 50% is calculated from this (IC50). The standard application volume is 5 μl. The proportion of DMSO in the bath solution corresponds to 0.1%.

[4] = test system: animal model of pulmonary hypertension; details: cited from earlier work

For `Cc1ccc2oc(-c3ccc(COc4ccccc4CCN(CCCCC(=O)O)C4CCCc5nc(C(=O)O)ccc54)cc3)nc2c1` (single isomer, unassigned; enantiomer 2) [Example 2, (+)-5-{(4-Carboxybutyl)[2-(2-{[4-(5-methyl-1,3-benzoxazol-2-yl)benzyl]oxy}phenyl)ethyl]-amino}-5,6,7,8-tetrahydroquinoline-2-carboxylic acid (Enantiomer 2)], the “Effect of combination with the NO donor DEA/NO on sGC stimulation” value ([1]; combination with DEA/NO) was “no synergistic effect”, the “Stimulation (x-fold), haem-containing sGC, basal” value ([1]; test compound 0.01 μM) was 13.7 ± 1.9 x-fold and the “Stimulation (x-fold), haem-containing sGC, +0.01 μM DEA/NO” value (from here on “Stimulation (x-fold) … +0.01 μM DEA/NO”) ([1]; test compound 0.01 μM) was 20.2 ± 3.8 x-fold. The “Stimulation (x-fold), haem-containing sGC, +10 μM ODQ” value (from here on “Stimulation (x-fold) … +10 μM ODQ”) ([1]; test compound 0.01 μM) was 63.9 ± 12.2 x-fold, the “Stimulation (x-fold), haem-containing sGC, basal” value ([1]; test compound 0.1 μM) was 31.2 ± 3.5 x-fold and the “Stimulation (x-fold) … +0.01 μM DEA/NO” value ([1]; test compound 0.1 μM) was 42.7 ± 7.2 x-fold. The “Stimulation (x-fold) … +10 μM ODQ” value ([1]; test compound 0.1 μM) was 129.2 ± 18.9 x-fold, the “Stimulation (x-fold), haem-containing sGC, basal” value ([1]; test compound 1.0 μM) was 40.2 ± 4.0 x-fold and the “Stimulation (x-fold) … +0.01 μM DEA/NO” value ([1]; test compound 1.0 μM) was 56.5 ± 10.5 x-fold. For the same compound, the “Stimulation (x-fold) … +10 μM ODQ” value ([1]; test compound 1.0 μM) was 172.2 ± 26.3 x-fold, the “Stimulation (x-fold), haem-containing sGC, basal” value ([1]; test compound 10 μM) was 51.6 ± 6.4 x-fold and the “Stimulation (x-fold) … +0.01 μM DEA/NO” value ([1]; test compound 10 μM) was 62.7 ± 11.0 x-fold. For the same compound, the “Stimulation (x-fold) … +10 μM ODQ” value ([1]; test compound 10 μM) was 189.5 ± 28.2 x-fold, the “Stimulation (x-fold), haem-free sGC, basal” value ([2]; test compound 0.01 μM) was 5.2 ± 0.6 x-fold and the “Stimulation (x-fold), haem-free sGC, basal” value ([2]; test compound 0.1 μM) was 19.9 ± 2.2 x-fold. The “Stimulation (x-fold), haem-free sGC, basal” value ([2]; test compound 1.0 μM) was 82.7 ± 10.5 x-fold, the “Stimulation (x-fold), haem-free sGC, basal” value ([2]; test compound 10 μM) was 169.5 ± 23.6 x-fold and the minimal effective concentration [3] was 1.1 nM. For the same compound, the IC50 (saphenous artery rings) was 0.0036 µM.
Work on `O=C(O)CCCCN(CCc1ccccc1OCc1ccc(CCc2ccccc2)cc1)C1CCCc2nc(C(=O)O)ccc21` (single isomer, unassigned) [Example 14] yielded a minimal effective concentration [3] of 30 nM and an IC50 (saphenous artery rings) of 0.0418 µM.
`O=C(O)CCCCN(CCc1ccccc1OCc1ccc(CCc2ccc(F)cc2)cc1)C1CCCc2nc(C(=O)O)ccc21` (single isomer, unassigned) [Example 16] showed a minimal effective concentration [3] of 3 nM and an IC50 (saphenous artery rings) of 0.0155 µM.
In the case of `O=C(O)CCCCN(CCc1ccccc1OCc1ccc(CCc2ccccc2)cc1)Cc1ccc(C(=O)O)cc1` [BAY 58-2667, cinaciguat], the Duration of action ([4]; inhalative) is given as “did not have a sufficient duration of action” and the “Pulmonary arterial pressure after inhalative administration” value ([4]; microparticles) is given as “dose-dependent selective reduction”.
